Experimental data reported in ChEMBL document CHEMBL5625277, “Systematical mutational analysis of teriparatide on anti-osteoporosis activity by alanine scanning” (Bioorg Med Chem Lett, 2024).

Assay: Cytotoxicity in pre-osteoblasts (unknown origin) assessed as cell death upto 5 uM by CCK8 assay
Assay type: toxicity, cell-based
Conditions: pre-osteoblast
For CC[C@H](C)[C@H](NC(=O)[C@H](CCC(=O)O)NC(=O)[C@H](CO)NC(=O)[C@@H](NC(=O)[C@H](CO)NC(C)=O)C(C)C)C(=O)N[C@@H](CCC(N)=O)C(=O)N[C@@H](CC(C)C)C(=O)N[C@@H](CCSC)C(=O)N[C@@H](Cc1cnc[nH]1)C(=O)N[C@@H](CC(N)=O)C(=O)N[C@@H](CC(C)C)C(=O)NCC(=O)N[C@@H](CCCCN)C(=O)N[C@@H](Cc1cnc[nH]1)C(=O)N[C@@H](CC(C)C)C(=O)N[C@@H](C)C(=O)N[C@@H](CO)C(=O)N[C@@H](CCSC)C(=O)N[C@@H](CCC(=O)O)C(=O)N[C@@H](CCCNC(=N)N)C(=O)N[C@H](C(=O)N[C@@H](CCC(=O)O)C(=O)N[C@@H](Cc1c[nH]c2ccccc12)C(=O)N[C@@H](CC(C)C)C(=O)N[C@@H](CCCNC(=N)N)C(=O)N[C@@H](CCCCN)C(=O)N[C@@H](CCCCN)C(=O)N[C@@H](CC(C)C)C(=O)N[C@@H](CCC(N)=O)C(=O)N[C@@H](CC(=O)O)C(=O)N[C@H](C(=O)N[C@@H](Cc1cnc[nH]1)C(=O)N[C@@H](CC(N)=O)C(=O)N[C@@H](Cc1ccccc1)C(N)=O)C(C)C)C(C)C, the Activity was “Non-Toxic”.
With CSCC[C@H](NC(=O)[C@H](CC(C)C)NC(=O)[C@H](CCC(N)=O)NC(=O)[C@H](C)NC(=O)[C@H](CCC(=O)O)NC(=O)[C@H](CO)NC(=O)[C@@H](NC(=O)[C@H](CO)NC(C)=O)C(C)C)C(=O)N[C@@H](Cc1cnc[nH]1)C(=O)N[C@@H](CC(N)=O)C(=O)N[C@@H](CC(C)C)C(=O)NCC(=O)N[C@@H](CCCCN)C(=O)N[C@@H](Cc1cnc[nH]1)C(=O)N[C@@H](CC(C)C)C(=O)N[C@@H](CC(N)=O)C(=O)N[C@@H](CO)C(=O)N[C@@H](CCSC)C(=O)N[C@@H](CCC(=O)O)C(=O)N[C@@H](CCCNC(=N)N)C(=O)N[C@H](C(=O)N[C@@H](CCC(=O)O)C(=O)N[C@@H](Cc1c[nH]c2ccccc12)C(=O)N[C@@H](CC(C)C)C(=O)N[C@@H](CCCNC(=N)N)C(=O)N[C@@H](CCCCN)C(=O)N[C@@H](CCCCN)C(=O)N[C@@H](CC(C)C)C(=O)N[C@@H](CCC(N)=O)C(=O)N[C@@H](CC(=O)O)C(=O)N[C@H](C(=O)N[C@@H](Cc1cnc[nH]1)C(=O)N[C@@H](CC(N)=O)C(=O)N[C@@H](Cc1ccccc1)C(N)=O)C(C)C)C(C)C the Activity was “Non-Toxic”.
For CC[C@H](C)[C@H](NC(=O)[C@H](CCC(=O)O)NC(=O)[C@H](CO)NC(=O)[C@@H](NC(=O)[C@H](CO)NC(C)=O)C(C)C)C(=O)N[C@@H](CCC(N)=O)C(=O)N[C@@H](CC(C)C)C(=O)N[C@@H](CCSC)C(=O)N[C@@H](Cc1cnc[nH]1)C(=O)N[C@@H](CC(N)=O)C(=O)N[C@@H](CC(C)C)C(=O)NCC(=O)N[C@@H](CCCCN)C(=O)N[C@@H](Cc1cnc[nH]1)C(=O)N[C@@H](CC(C)C)C(=O)N[C@@H](CC(N)=O)C(=O)N[C@@H](CO)C(=O)N[C@@H](C)C(=O)N[C@@H](CCC(=O)O)C(=O)N[C@@H](CCCNC(=N)N)C(=O)N[C@H](C(=O)N[C@@H](CCC(=O)O)C(=O)N[C@@H](Cc1c[nH]c2ccccc12)C(=O)N[C@@H](CC(C)C)C(=O)N[C@@H](CCCNC(=N)N)C(=O)N[C@@H](CCCCN)C(=O)N[C@@H](CCCCN)C(=O)N[C@@H](CC(C)C)C(=O)N[C@@H](CCC(N)=O)C(=O)N[C@@H](CC(=O)O)C(=O)N[C@H](C(=O)N[C@@H](Cc1cnc[nH]1)C(=O)N[C@@H](CC(N)=O)C(=O)N[C@@H](Cc1ccccc1)C(N)=O)C(C)C)C(C)C, the Activity was “Non-Toxic”.
